Tests used:
[1] = target: T1, TREK-2 (expressed in HEK293) (Mus musculus, UniProt Q8BUW1); experiment: patch clamp of transfected HEK293 cells, inhibition of riluzole-evoked current
T1 construct: gene Kcnk10
T1 sequence (Q8BUW1 1-535): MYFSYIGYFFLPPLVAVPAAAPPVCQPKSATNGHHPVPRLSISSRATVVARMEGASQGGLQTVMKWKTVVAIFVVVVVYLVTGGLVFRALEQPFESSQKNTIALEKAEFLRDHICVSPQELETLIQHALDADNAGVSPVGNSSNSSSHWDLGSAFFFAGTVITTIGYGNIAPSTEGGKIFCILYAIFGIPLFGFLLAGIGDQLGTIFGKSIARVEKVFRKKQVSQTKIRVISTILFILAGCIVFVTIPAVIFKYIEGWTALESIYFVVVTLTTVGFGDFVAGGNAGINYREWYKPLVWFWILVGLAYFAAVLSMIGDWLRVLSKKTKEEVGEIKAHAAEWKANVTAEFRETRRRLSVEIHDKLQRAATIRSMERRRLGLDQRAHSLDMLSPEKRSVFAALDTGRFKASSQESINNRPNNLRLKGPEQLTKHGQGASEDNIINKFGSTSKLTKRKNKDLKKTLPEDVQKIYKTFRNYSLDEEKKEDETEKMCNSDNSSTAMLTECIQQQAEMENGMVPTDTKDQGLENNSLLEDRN

[2] = target: T2, TREK-2 (native riluzole-activated current IRIL in mouse SCG neurons) (Mus musculus, UniProt Q8BUW1); experiment: perforated-patch whole-cell voltage clamp, inhibition of riluzole-activated current; assay type: cell-based; conditions: riluzole 300 µM activator, TEA 15 mM, TTX 0.5 µM, CsCl 1 mM, -30 mV, room temperature, Hill coefficient 0.78
T2 construct: gene Kcnk10; TREK-1 and TRAAK are also expressed at lower level

Structure (SMILES) | inhibition at 1 µM ([1]; HEK293, read-out: % inhibition at 1 μM) [%] | inhibition at 0.3 µM ([1]; HEK293, read-out: % inhibition at 300 nM) [%] | IC50 [2] [nM]
O=C1c2ccccc2C(Cc2ccncc2)(Cc2ccncc2)c2ccccc21 [XE991] | 73.8 ± 1.93 |  | 
O=C1N(c2ccccc2)c2ccccc2C1(Cc1ccncc1)Cc1ccncc1 [linopirdine] |  | 65.5 ± 5.93 | 310 ± 60

From paper PMC7461115, “Contribution of KCNQ and TREK Channels to the Resting Membrane Potential in Sympathetic Neurons at Physiological Temperature” (International Journal of Molecular Sciences, 2020)
